Some results are limits rather than exact numbers.

The first assay relates to SARS-CoV-2 strain USA-WA1/2020. Put plainly: microbe, parasite or virus in culture. It counts as cell-based. As to conditions: Severe acute respiratory syndrome coronavirus 2, HeLa-ACE2, 24 h, HeLa-ACE2 cells, SARS-CoV-2 infection, 24 h; read-out: EC50, uM (Hela).
For orientation: EC50 means the concentration at which the effect is half-maximal. Take `CC(C)C[C@@H](O)C(=O)N1C[C@H]2CC[C@H](C2)[C@H]1C(=O)N[C@@H](C[C@@H]1CCNC1=O)C(=O)COC(F)(F)F` [Compound 638, (1R,2S,5S)-3-((R)-2-hydroxy-4-methylpentanoyl)-N-((S)-3-oxo-1-((S)-2-oxopyrrolidin-3-yl)-4-(trifluoromethoxy)butan-2-yl)-3-azabicyclo[3.2.1]octane-2-carboxamide]: the EC50 was 0.05 to 0.2 µM.
Same read-out and setting: under `CC(C)C[C@@H](O)C(=O)N1CCCCC[C@H]1C(=O)N[C@@H](C[C@@H]1CCNC1=O)C(=O)COC(F)(F)F` [Compound 639, (S)-1-((R)-2-hydroxy-4-methylpentanoyl)-N-((S)-3-oxo-1-((S)-2-oxopyrrolidin-3-yl)-4-(trifluoromethoxy)butan-2-yl)azepane-2-carboxamide] stands under 0.05 µM; under `CC(C)C[C@@H](O)C(=O)N1CCC2(CC2)C[C@H]1C(=O)N[C@@H](C[C@@H]1CCNC1=O)C(=O)COC(F)(F)F` [Compound 640, (S)-6-((R)-2-hydroxy-4-methylpentanoyl)-N-((S)-3-oxo-1-((S)-2-oxopyrrolidin-3-yl)-4-(trifluoromethoxy)butan-2-yl)-6-azaspiro[2.5]octane-5-carboxamide], 0.05 to 0.2 µM.
Regarding `CC(C)C[C@@H](O)C(=O)N1CCC(C)(C)C[C@H]1C(=O)N[C@@H](C[C@@H]1CCNC1=O)C(=O)COC(F)(F)F` [Compound 641, (S)-1-((R)-2-hydroxy-4-methylpentanoyl)-4,4-dimethyl-N-((S)-3-oxo-1-((S)-2-oxopyrrolidin-3-yl)-4-(trifluoromethoxy)butan-2-yl)piperidine-2-carboxamide], the EC50 is under 0.05 µM.
Regarding `CC(C)C[C@@H](O)C(=O)N1C2CCC(CC2)[C@H]1C(=O)N[C@@H](C[C@@H]1CCNC1=O)C(=O)COC(F)(F)F` [Compound 642, (S)-2-((R)-2-hydroxy-4-methylpentanoyl)-N-((S)-3-oxo-1-((S)-2-oxopyrrolidin-3-yl)-4-(trifluoromethoxy)butan-2-yl)-2-azabicyclo[2.2.2]octane-3-carboxamide], the 50% effective concentration (EC50) is under 0.05 µM.
Same read-out and setting: under `CC(C)C[C@@H](NC(=O)OC(C)(C)C)C(=O)N1CC2(CC2)C[C@H]1C(=O)N[C@@H](C[C@@H]1CCNC1=O)C(=O)COC(F)(F)F` [Compound 643, tert-butyl ((R)-4-methyl-1-oxo-1-((S)-6-(((S)-3-oxo-1-((S)-2-oxopyrrolidin-3-yl)-4-(trifluoromethoxy)butan-2-yl)carbamoyl)-5-azaspiro[2.4]heptan-5-yl)pentan-2-yl)carbamate] stands under 0.05 µM; under `CC(C)C[C@@H](N)C(=O)N1CC2(CC2)C[C@H]1C(=O)N[C@@H](C[C@@H]1CCNC1=O)C(=O)COC(F)(F)F` [Compound 644, (S)-5-(D-leucyl)-N-((S)-3-oxo-1-((S)-2-oxopyrrolidin-3-yl)-4-(trifluoromethoxy)butan-2-yl)-5-azaspiro[2.4]heptane-6-carboxamide], 0.2 to 0.5 µM.
The same measure, in the same setting: the value for `CC(C)C[C@H](C(=O)N1CC2(CC2)C[C@H]1C(=O)N[C@@H](C[C@@H]1CCNC1=O)C(=O)COC(F)(F)F)N(C)C(=O)OC(C)(C)C` [Compound 645, tert-butyl methyl((R)-4-methyl-1-oxo-1-((S)-6-(((S)-3-oxo-1-((S)-2-oxopyrrolidin-3-yl)-4-(trifluoromethoxy)butan-2-yl)carbamoyl)-5-azaspiro[2.4]heptan-5-yl)pentan-2-yl)carbamate] was 0.05 to 0.2 µM; that for `COC1(C(=O)N2CC3(CC3)C[C@H]2C(=O)N[C@@H](C[C@@H]2CCNC2=O)C(=O)COC(F)(F)F)CCC(F)(F)CC1` [Compound 646, (S)-5-(4,4-difluoro-1-methoxycyclohexane-1-carbonyl)-N-((S)-3-oxo-1-((S)-2-oxopyrrolidin-3-yl)-4-(trifluoromethoxy)butan-2-yl)-5-azaspiro[2.4]heptane-6-carboxamide] was under 0.05 µM.
Still for that read-out and setting: under `CC(C)OCC(=O)N1CC2(CC2)C[C@H]1C(=O)N[C@@H](C[C@@H]1CCNC1=O)C(=O)COC(F)(F)F` [Compound 647, (888S)-5-(2-isopropoxyacetyl)-N-((S)-3-oxo-1-((S)-2-oxopyrrolidin-3-yl)-4-(trifluoromethoxy)butan-2-yl)-5-azaspiro[2.4]heptane-6-carboxamide] stands 0.05 to 0.2 µM.
As for `O=C1NCC[C@H]1C[C@H](NC(=O)[C@@H]1CC2(CC2)CN1C(=O)Cc1ccccc1)C(=O)COC(F)(F)F` [Compound 648, (S)-N-((S)-3-oxo-1-((S)-2-oxopyrrolidin-3-yl)-4-(trifluoromethoxy)butan-2-yl)-5-(2-phenylacetyl)-5-azaspiro[2.4]heptane-6-carboxamide], the EC50 is under 0.05 µM.
`O=C1NCC[C@H]1C[C@H](NC(=O)[C@@H]1CC2(CC2)CN1C(=O)C1(O)CCC(C(F)(F)F)CC1)C(=O)COC(F)(F)F` (stereo partly drawn) [Compound 649, (S)-5-(l-hydroxy-4-(trifluoromethyl)cyclohexane-1-carbonyl)-N-((S)-3-oxo-1-((S)-2-oxopyrrolidin-3-yl)-4-(trifluoromethoxy)butan-2-yl)-5-azaspiro[2.4]heptane-6-carboxamide]: the 50% effective concentration (EC50) was in the range of 0.05 to 0.2 µM.
Take `CSCC[C@H](NC(=O)[C@H](CC(C)C)NC(=O)C(=O)Nc1ccccc1F)C(=O)COc1c(F)c(F)cc(F)c1F` [Compound 654, N1-(2-fluorophenyl)-N2-((S)-4-methyl-1-(((S)-5-(methylthio)-2-oxo-1-(2,3,5,6-tetrafluorophenoxy)pentan-3-yl)amino)-1-oxopentan-2-yl)oxalamide]: the EC50 lay within 0.5 to 1 µM.
Same read-out and setting: the value for `CC(C)C[C@H](NC(=O)C(=O)Nc1ccccc1F)C(=O)N[C@@H](CCS(C)(=O)=O)C(=O)COc1c(F)c(F)cc(F)c1F` [Compound 655, N1-(2-fluorophenyl)-N2-((S)-4-methyl-1-(((S)-5-(methylsulfonyl)-2-oxo-1-(2,3,5,6-tetrafluorophenoxy)pentan-3-yl)amino)-1-oxopentan-2-yl)oxalamide] was 0.5 to 1 µM; that for `O=C(NC1(C(F)(F)F)CC1)C(=O)N1C[C@@H]2CCC[C@@H]2[C@H]1C(=O)N[C@@H](C[C@@H]1CCNC1=O)C(=O)COC(F)(F)F` [Compound 656, (1S,3aR,6aS)-N-((S)-3-oxo-1-((S)-2-oxopyrrolidin-3-yl)-4-(trifluoromethoxy)butan-2-yl)-2-(2-oxo-2-((1-(trifluoromethyl)cyclopropyl)amino)-acetyl)octahydrocyclopenta[c]pyrrole-1-carboxamide] was 0.05 to 0.2 µM; that for `CC(C)(C)NC(=O)C(=O)N1CC2(CCCC2)CC1C(=O)N[C@@H](C[C@@H]1CCNC1=O)C(=O)COC(F)(F)F` (stereo partly drawn) [Compound 657, 2-(2-(tert-butylamino)-2-oxoacetyl)-N-((S)-3-oxo-1-((S)-2-oxopyrrolidin-3-yl)-4-(trifluoromethoxy)butan-2-yl)-2-azaspiro[4.4]nonane-3-carboxamide] was under 0.05 µM.
With `CC(C)(C)C[C@@H](O)C(=O)N1CC2(CC2)C[C@H]1C(=O)N[C@@H](C[C@@H]1CCNC1=O)C(=O)COC(F)(F)F` [Compound 658, (S)-5-((R)-2-hydroxy-4,4-dimethylpentanoyl)-N-((S)-3-oxo-1-((S)-2-oxopyrrolidin-3-yl)-4-(trifluoromethoxy)butan-2-yl)-5-azaspiro[2.4]heptane-6-carboxamide], the EC50 is under 0.05 µM.
On to `O=C1NCC[C@H]1C[C@H](NC(=O)[C@@H]1[C@H]2CCC[C@H]2CN1C(=O)c1noc2ccc(Cl)cc12)C(=O)COC(F)(F)F` [Compound 659, (1S,3aR,6aS)-2-(5-chlorobenzo[d]isoxazole-3-carbonyl)-N-((S)-3-oxo-1-((S)-2-oxopyrrolidin-3-yl)-4-(trifluoromethoxy)butan-2-yl)octahydrocyclopenta[c]pyrrole-1-carboxamide], for which the EC50 is under 0.05 µM.
For the molecule `CN[C@H](CC(C)C)C(=O)N1CC2(CC2)C[C@H]1C(=O)N[C@@H](C[C@@H]1CCNC1=O)C(=O)COC(F)(F)F` [Compound 660, (S)-5-(methyl-D-leucyl)-N-((S)-3-oxo-1-((S)-2-oxopyrrolidin-3-yl)-4-(trifluoromethoxy)butan-2-yl)-5-azaspiro[2.4]heptane-6-carboxamide], the EC50 is 0.05 to 0.2 µM.
For the molecule `O=C1NCC[C@H]1C[C@H](NC(=O)[C@@H]1CC2(CC2)CN1C(=O)C1CCC(F)(F)CC1)C(=O)COC(F)(F)F` [Compound 661, (S)-5-(4,4-difluorocyclohexane-1-carbonyl)-N-((S)-3-oxo-1-((S)-2-oxopyrrolidin-3-yl)-4-(trifluoromethoxy)butan-2-yl)-5-azaspiro[2.4]heptane-6-carboxamide], the 50% effective concentration (EC50) is 0.05 to 0.2 µM.
Still for that read-out and setting: the value for `C=CC[C@@H](O)C(=O)N1CC2(CC2)C[C@H]1C(=O)N[C@@H](C[C@@H]1CCNC1=O)C(=O)COC(F)(F)F` [Compound 662, (S)-5-((R)-2-hydroxypent-4-enoyl)-N-((S)-3-oxo-1-((S)-2-oxopyrrolidin-3-yl)-4-(trifluoromethoxy)butan-2-yl)-5-azaspiro[2.4]heptane-6-carboxamide] was 0.05 to 0.2 µM.
With `O=C1NCC[C@H]1C[C@H](NC(=O)[C@@H]1CC2(CC2)CN1C(=O)c1cc2cccc(Cl)c2[nH]1)C(=O)COC(F)(F)F` [Compound 663, (S)-5-(7-chloro-1H-indole-2-carbonyl)-N-((S)-3-oxo-1-((S)-2-oxopyrrolidin-3-yl)-4-(trifluoromethoxy)butan-2-yl)-5-azaspiro[2.4]heptane-6-carboxamide], the concentration for a half-maximal effect (EC50) is under 0.05 µM.

The assay is the same for the next values; noted with them: Severe acute respiratory syndrome coronavirus 2, HeLa-ACE2, 24 h; read-out: EC50, uM (Hela).
In the case of `CC(C)C[C@H](NC(=O)C(=O)Nc1ccccc1F)C(=O)N[C@@H](C[C@@H]1CCNC1=O)C(=O)COP(C)(=O)c1ccccc1` (stereo partly drawn) [Compound 651, (S)-3-((S)-2-(2-((2-fluorophenyl)amino)-2-oxoacetamido)-4-methylpentanamido)-2-oxo-4-((S)-2-oxopyrrolidin-3-yl)butyl methyl(phenyl)phosphinate], the EC50 lay within 0.05 to 0.2 µM.
Still for that read-out and setting: under `CC(C)C[C@H](NC(=O)C(=O)Nc1ccccc1)C(=O)N[C@@H](C[C@@H]1CCNC1=O)C(=O)COP(C)(=O)c1ccccc1` (stereo partly drawn) [Compound 653, (S)-3-((S)-4-methyl-2-(2-oxo-2-(phenylamino)acetamido)pentanamido)-2-oxo-4-((S)-2-oxopyrrolidin-3-yl)butyl methyl(phenyl)phosphinate] stands 0.2 to 0.5 µM.

These data come from patent US11708348B2, “Protease inhibitors for treatment of coronavirus infections” (The Scripps Research Institute, priority 2021, dated 2023).
